Measured values: patent US8840939B2, “Vigna unguiculata seed extract and compositions containing same” (Laboratoires Expanscience, priority 2009, dated 2014)

Legend:
IL1α = test: Release of IL1α by PMA-stimulated keratinocytes (ELISA); format: cell-based, Human; conditions: 10^−7 M dexamethasone, NCTC2544 keratinocytes, 0.1 μg/ml PMA 24 hours
Experimental: (§1) The anti-inflammatory effect of Vigna hydrolysate was evaluated by measuring the cytokines (IL1α, IL8) produced by keratinocytes in response to stimulation by PMA.
(§2) Human keratinocytes (NCTC2544 cell line) were preincubated for 24 hours with 0.05% (w/v) Vigna hydrolysate or the reference molecule (10^−7 M dexamethasone). The cells were then treated with 0.1 μg/ml PMA, always in the presence of Vigna hydrolysate or dexamethasone, for 24 hours. The quantities of IL1α and IL8 released in the culture medium were evaluated by ELISA.
(§3) The results were analyzed statistically by one-way analysis of variance (ANOVA) followed by Tukey's test:
(§4) The percentage of inhibition in relation to the stimulated control (PMA) was calculated.

IL8 = test: Release of IL8 by PMA-stimulated keratinocytes (ELISA); format: cell-based, Human; conditions: 10^−7 M dexamethasone, NCTC2544 keratinocytes, 0.1 μg/ml PMA 24 hours
Experimental: as §1, §2, §3, §4

MMP1 = test: Gene expression of MMP1 by fibroblasts (RT-PCR); format: cell-based; conditions: 5 ng/ml TGFβ1, normal human fibroblasts, 24 hours
Experimental: (§5) The effect of Vigna hydrolysate on the modulation of the extracellular matrix of the dermis was evaluated on a dermal fibroblast model wherein the gene expression of elastin and MMP1 was studied.
(§6) Normal human fibroblasts were treated for 24 hours with 0.01% and 0.05% (w/v) Vigna hydrolysate or with 5 ng/ml TGFβ1 (reference). The gene expression of elastin and MMP1 was analyzed by quantitative real-time RT-PCR.
(§7) The results were analyzed statistically by one-way analysis of variance (ANOVA) followed by Dunnett's test:
(§8) The level of gene expression was expressed in relative quantity (RQ) and the effect of the treatment in relation to the control cells in percentage of increase or inhibition.

elastin = test: Gene expression of elastin by fibroblasts (RT-PCR); format: cell-based; conditions: 5 ng/ml TGFβ1, normal human fibroblasts, 24 hours
Experimental: as §5, §6, §7, §8

| Molecule | IL1α (IL1α) | inhibition at 0.1 µM (IL1α; Homo sapiens, NCTC-2544, read-out: IL1α, percentage of inhibition in relation to the stimulated control (PMA) (converted)) | IL8 (IL8) | inhibition at 0.1 µM (IL8; Homo sapiens, NCTC-2544, read-out: IL8, percentage of inhibition in relation to the stimulated control (PMA) (converted)) | MMP1 gene expression, percentage of inhibition in relation to the control cells (MMP1) | MMP1 gene expression, relative quantity (RQ) (MMP1) | ELASTIN gene expression, percentage of increase in relation to the control cells (elastin) | ELASTIN gene expression, relative quantity (RQ) (elastin) |
| --- | --- | --- | --- | --- | --- | --- | --- | --- |
| C[C@@H]1C[C@H]2[C@@H]3CCC4=CC(=O)C=C[C@]4(C)[C@@]3(F)[C@@H](O)C[C@]2(C)[C@@]1(O)C(=O)CO [dexamethasone] | 14.0 ± 3.5 pg/mL | 82% | 6.0 ± 0.2 ng/mL | 81% |  |  |  |  |
| TGFβ1: 5 ng/ml TGFβ1 (reference) |  |  |  |  | −88% | 0.12 | +559% | 6.59 |
